Data published in patent US20040072824A1, “Methods and compositions for the treatment of cancer” (priority 2001, published 2004).
Where a name gives a salt, the structure may show the parent alone. Read-outs that look alike come from different tables or passages of the source.

Tests used:
[1] = test system: K562, U937, MDA-DB231, BT20 and MCF7 cell lines; experiment: Cytotoxic effects in multi-well plate, 6 days, ATP level (CellTiter-Glo); details: 2x10^-9 M to 2x10^-4 M
Experimental: In order to test the cytotoxic effects of various compounds, a test was developed in a multi-well plate. Two leukemic cell lines, namely K562 and U937, and three breast cancer cell lines, namely MDA-DB231, BT20 and MCF7 were used for this test.
The cells were seeded at low density and were left for 24 hours to recover and reach a new logarithmic phase of growth. Various concentrations of the compounds being tested, ranging from 2×10^−9 M to 2×10^−4 M, were added in triplicate. The mixture was incubated for 6 days, during which approximately 4 doublings of the cell population occurred, to allow the cells to reach subconfluence.
The viability of the cultured cells after the treatment by the compounds was determined by quantifying the level of ATP since the level of ATP is directly proportional to the number of viable cells present in the culture. The ATP level was quantified by using CellTiter-Glo™ (Promega) luminescent test for cell viability.

U937 = assay type: in vivo; details: for toxicity for the animals: mouse, in vivo; for tumor growth compared to the negative control: treatment from day 1, cells inoculated after more than 24 hours, daily administration
Experimental: The second protocol was designed to test the preventive effects of the compounds of this invention on tumorigenesis. In this protocol, the animals have been treated with various compounds of the present invention on day 1. After more than 24 hours, tumoral cells were inoculated. The administration of the compounds of this invention was maintained daily. The cell line used for this test was U937.

[2] = test system: MDA-MB-231 (breast cancer line); experiment: Curative effects on palpable tumors, MDA-MB-231 cells in scid/scid mice; assay type: in vivo; details: for tumor growth: daily once tumors palpable, at least at the higher concentration tested; for death of test animals: higher dosage
Experimental: In this series of experiments, effects of various compounds of the present invention on tumor development were tested using two protocols. The first protocol is directed to the testing of curative effects of these compounds in different cell lines. In this protocol, cancerous cells are inoculated to the animals, and the inoculated animals were left without any further treatment until the development of tumors. As soon as the tumors became palable (4 mm^3), the compounds of this invention were administered daily to the animals.

[3] = test system: blastic cells from AML patients; experiment: Inhibition of viability of fresh leukemic cells (trypan blue exclusion); assay type: cell-based, human; details: Homo sapiens, day 3; for cytotoxicity at 10 µM: 10^-5 M; for cytotoxicity at 1 µM: 10^-6 M
Experimental: Samples for AML 1 through 5, AML 1 being the least and AML 5 being the most differentiated, were obtained. […] Cells were incubated with or without […] anti-histamine derivatives. Polaramine was included as a negative control. Cell counts were assessed by trypan blue exclusion test at day 3 after the incubation. Morphological analysis was performed using Wright-Giemsa staining on cytocentrifuge preparations. The results were expressed as % inhibition of growth as compared to negative control.

U937 cells = experiment: Antineoplastic activity, U937 cells injected in scid/scid mice, treatment from day 1; assay type: in vivo; details: 100 mg/kg; six mice
Experimental: Ten million U937 cells were subcutaneously injected into scid/scid mice. One injection was carried out per each of the 6 mice tested per set. The excipient or the compounds tested were administered intraperitoneally on day 1, i.e., the day of U937 cell line inoculation, of the experiment. The excipients or compounds were administered once daily. The tumor sizes were measured on day 5, day 8, day 12, day 14 and day 19 after the injection.

TCTP = TCTP expression in treated U937 cells (western blot); assay type: cell-based; details: 24 hours, various dilutions
Experimental: U937 cells were treated with various dilutions of hydroxyzine, brompheniramine and promethazine for 24 hours as denoted in FIG. 23A. Starting concentrations were: 50 mg/ml for […] (“A”); 10 mg/ml for brompheniramine (“B”); and 25 mg/ml for promethazine (“C”). The proteins were isolated from these cells and loaded onto a gel for western blot analysis. A specific anti-TCTP (anti-HRF) antibody was used to visualize the location of TCTP. […] The level of actin in equal loading of extract was visualized by antiactin antibody (Santa Cruz Biotechnology). No substantial difference between the level of actin in treated and untreated cells was observed.

[4] = test system: K562, U937, Jurkat, T47-D, MCF7, BT20 and 184B5 cell lines; experiment: Cytotoxicity in malignant and immortalized cell lines (manual counting, Alamar assay); assay type: cell-based; details: all of the cell lines tested
Experimental: These four compounds were added at different concentrations to cultures of various malignant cell lines and normal cells. The cell lines used for these tests were the following:
All leukemic cell lines were grown and used in logarithmic phase. After one day of treatment, the cells were isolated, counted and diluted in a regular growth medium to provide the cell density of about 75×10^3 cells/ml for reading on plates at 48 hours after the treatment, and […] for reading at 144 hours after the treatment.
Several dilutions of each compound tested were added to the wells (12 wells per plate, TPP), and 1 ml of cells from the parent solution was added per well after a line had been completed. The dilutions were made using the culture medium, and following dilutions were tested: control, which contained no compound of this invention; 1:100; 1:1,000; 1:2,000; 1:5,000; and 1:10,000. The starting concentrations for these dilutions were: 50 mg/ml for compound A; 10 mg/ml for compound B; 25 mg/ml for compound C; and 5 mg/ml for compound D. The results were analyzed by manual counting and Alamar reduced assay.
The cells were grown on their respective propagation medium and seeded 24 hours before the compounds are added. The cells were trypsinized, and 50,000 cells/well and 10,000 cells/well were seeded in order to read the plates at 48 hours and 144 hours after being treated by the compounds, respectively.
On the day of the treatment, the medium was replaced by 10 ml each of series dilution of the compounds, consisting of: control, which contained no compound of this invention; 1:100 dilution; 1:1,000 dilution; 1:2,000 dilution; and 1:5,000 dilution. The starting concentrations for these dilutions were: 50 mg/ml for compound A; 10 mg/ml for compound B; 25 mg/ml for compound C; and 5 mg/ml for compound D. The dilution was made using the growth medium.
A tested compound is regarded as being active in cytotoxicity where the percentage of surviving cells after the treatment with the compound is less than 30%.

[5] = 72 h, MEAN over AML patients, read-out: In Vitro Percent Inhibition of Viability, MEAN
[6] = 72 h, patient ID 3, FAB AML2, read-out: In Vitro Percent Inhibition of Viability
[7] = 72 h, patient ID 4, FAB AML2, read-out: In Vitro Percent Inhibition of Viability
[8] = 72 h, patient ID 5, FAB AML2, read-out: In Vitro Percent Inhibition of Viability
[9] = 72 h, patient ID 10, FAB AML4, read-out: In Vitro Percent Inhibition of Viability
[10] = 72 h, patient ID 11, FAB AML5, read-out: In Vitro Percent Inhibition of Viability
[11] = 72 h, patient ID 12, FAB AML5, read-out: In Vitro Percent Inhibition of Viability
[12] = 72 h, patient ID 13, FAB AML5, read-out: In Vitro Percent Inhibition of Viability
[13] = 72 h, patient ID 14, FAB AML5, read-out: In Vitro Percent Inhibition of Viability
[14] = 72 h, patient ID 15, FAB AML5, read-out: In Vitro Percent Inhibition of Viability
[15] = AML1, 72 h, patient ID 1, FAB AML1, read-out: In Vitro Percent Inhibition of Viability
[16] = AML1, 72 h, patient ID 2, FAB AML1, read-out: In Vitro Percent Inhibition of Viability
[17] = AML3, 72 h, patient ID 6, FAB AML3, read-out: In Vitro Percent Inhibition of Viability
[18] = AML3, 72 h, patient ID 7, FAB AML3, read-out: In Vitro Percent Inhibition of Viability
[19] = AML3, 72 h, patient ID 8, FAB AML3, read-out: In Vitro Percent Inhibition of Viability
[20] = AML3, 72 h, patient ID 9, FAB AML3, read-out: In Vitro Percent Inhibition of Viability

Row | Structure (SMILES) | cytotoxic effect group [1] | toxicity for the animals (U937) | tumor growth compared to the negative control (U937) | tumor growth [2] | death of test animals [2] | cytotoxicity at 10 µM [3, 5] | cytotoxicity at 1 µM [3, 5] | cytotoxicity at 10 µM [3, 6] | cytotoxicity at 1 µM [3, 6] | cytotoxicity at 10 µM [3, 7] | cytotoxicity at 1 µM [3, 7] | cytotoxicity at 10 µM [3, 8] | cytotoxicity at 1 µM [3, 8] | cytotoxicity at 10 µM [3, 9] | cytotoxicity at 1 µM [3, 9] | cytotoxicity at 10 µM [3, 10] | cytotoxicity at 1 µM [3, 10] | cytotoxicity at 10 µM [3, 11] | cytotoxicity at 10 µM [3, 12] | cytotoxicity at 1 µM [3, 12] | also measured
1 | Fc1ccc([C@@H]2CCNC[C@H]2COc2ccc3c(c2)OCO3)cc1 [A37, Paroxetine] | I | toxic for the animals | decrease in tumor growth | decreased tumor growth | caused the death of certain test animals | 55% | 24% | 67% | 25% | 62% | 21% | 43% | 6% | 50% | 39% | 32% | 39% | 76% | 53% | 53% | cytotoxicity at 10 µM [3, 13]: 33%; cytotoxicity at 1 µM [3, 13]: 35%; cytotoxicity at 10 µM [3, 14]: 41%; cytotoxicity at 1 µM [3, 14]: 9%; cytotoxicity at 10 µM [3, 15]: 50%; cytotoxicity at 1 µM [3, 15]: 0%; cytotoxicity at 10 µM [3, 16]: 41%; cytotoxicity at 1 µM [3, 16]: 25%; cytotoxicity at 10 µM [3, 17]: 54%; cytotoxicity at 1 µM [3, 17]: 19%; cytotoxicity at 10 µM [3, 18]: 63%; cytotoxicity at 1 µM [3, 18]: 3%; cytotoxicity at 10 µM [3, 19]: 56%; cytotoxicity at 1 µM [3, 19]: 12%; cytotoxicity at 10 µM [3, 20]: 97%; cytotoxicity at 1 µM [3, 20]: 53%
2 | CC1=C(/C=C/C(C)=C/C=C/C(C)=C/C(=O)O)C(C)(C)CCC1 [ATRA, All Trans Retinoic Acid] | – | – | – | – | – | – | – | – | – | – | – | – | – | – | – | – | – | – | – | – | mice that developed a tumor (U937 cells): all six
3 | CN[C@H]1CC[C@@H](c2ccc(Cl)c(Cl)c2)c2ccccc21 [SQ42, sertraline] | I | toxic for the animals | decrease in tumor growth | decreased tumor growth | caused the death of certain test animals | 61% | 24% | 83% | 16% | 84% | 18% | 26% | 46% | 53% | 39% | 68% | 46% | 73% | 42% | 11% | cytotoxicity at 10 µM [3, 13]: 38%; cytotoxicity at 1 µM [3, 13]: 25%; cytotoxicity at 10 µM [3, 14]: 78%; cytotoxicity at 1 µM [3, 14]: 0%; cytotoxicity at 10 µM [3, 15]: 42%; cytotoxicity at 1 µM [3, 15]: 17%; cytotoxicity at 10 µM [3, 16]: 59%; cytotoxicity at 1 µM [3, 16]: 20%; cytotoxicity at 10 µM [3, 17]: 35%; cytotoxicity at 1 µM [3, 17]: 11%; cytotoxicity at 10 µM [3, 18]: 82%; cytotoxicity at 1 µM [3, 18]: 15%; cytotoxicity at 10 µM [3, 19]: 72%; cytotoxicity at 1 µM [3, 19]: 36%; cytotoxicity at 10 µM [3, 20]: 79%; cytotoxicity at 1 µM [3, 20]: 38%
4 | CN(C)CCC(c1ccc(Br)cc1)c1ccccn1 (stereo not drawn) [brompheniramine, brompheniramine maleate] | – | – | – | – | – | – | – | – | – | – | – | – | – | – | – | – | – | – | – | – | expression of TCTP (TCTP): little effect; cytotoxic activity [4]: little or no cytotoxic activity
